Laboratory results reported in PubChem BioAssay AID330 (DTP/NCI, 2004).
“And” between values parts separate entries of the source, which are not always exact repeats. Equal values may be shown once. Inconclusive results and toxic doses are left out. Square brackets hold non-standard residues; d marks the D form. Peptide text beside a SMILES is read from it. * marks the point of attachment. Cbz = O=C(OCc1ccccc1)*; Nva = CCC[CH](N)C(=O)O

Test system: P388 leukemia ip, CD2F1 mice, survival T/C
Experiment: NCI In Vivo Anticancer Drug Screen. Data for tumor model P388 Leukemia (intraperitoneal) in CD2F1 (CDF1) mice
Conditions: endpoint: median survival time, higher = longer survival
Method in brief: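 Mice carrying the transplanted tumor received test compound or vehicle. Survival was recorded in each group, and the value is the treated-group measurement divided by that of the vehicle-treated control group.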

[1] = dose: 50.0 mg/kg/injection, schedule: Q01DX005 (ip), vehicle: Klucel (hydroxypropylcellulose) (HPC)
[2] = dose: 50.0 mg/kg/injection, schedule: Q01DX005 (ip), vehicle: saline with Tween-80
[3] = dose: 100.0 mg/kg/injection, schedule: Q01DX005 (ip), vehicle: saline with Tween-80
[4] = dose: 200.0 mg/kg/injection, schedule: Q01DX005 (ip), vehicle: saline with Tween-80
[5] = dose: 100.0 mg/kg/injection, schedule: Q01DX005 (ip), vehicle: Klucel (hydroxypropylcellulose) (HPC)

For `CC(C)(C)c1cc2c3c(c1)C(C)(C)OS314(OC2=O)OC(=O)c2cc(C(C)(C)C)cc(c21)C(C)(C)O4`, which T/C (dose: 25.0 mg/kg/injection, schedule: Q01DX001 (ip), vehicle: saline with Tween-80) is on record?
The T/C was 111 % of control.

And the T/C (dose: 50.0 mg/kg/injection, schedule: Q01DX001 (ip), vehicle: saline with Tween-80)?
The T/C was 92 % of control.

And the T/C (dose: 100.0 mg/kg/injection, schedule: Q01DX001 (ip), vehicle: saline with Tween-80)?
Its T/C is 100 % of control.

Which T/C (dose: 6.25 mg/kg/injection, schedule: Q01DX005 (ip), vehicle: Klucel (hydroxypropylcellulose) (HPC)) does the source give for `NC1=C(Br)C(=O)c2[nH]c(=O)[nH]c(=O)c2C1=O` here?
Its T/C is 98 % of control.

And the T/C (dose: 12.5 mg/kg/injection, schedule: Q01DX005 (ip), vehicle: Klucel (hydroxypropylcellulose) (HPC))?
The T/C was 100 % of control.

What about the T/C (dose: 25.0 mg/kg/injection, schedule: Q01DX005 (ip), vehicle: Klucel (hydroxypropylcellulose) (HPC)) of the same compound?
Its T/C is 102 % of control.

And the T/C [1]?
The T/C was 100 % of control.

What does the source list for `O=C1CSCN1N1CSCC1=O`?
T/C [2]: 101 % of control; T/C [3]: 102 % of control; T/C [4]: 98 % of control

What does the source list for `CN1C(=O)c2ccccc2NC(=O)C12O[C@@H]2c1cccc(O)c1` (some centres not stated)?
T/C (dose: 1.63 mg/kg/injection, schedule: Q01DX005 (ip), vehicle: DMSO): 106 % of control; T/C (dose: 3.25 mg/kg/injection, schedule: Q01DX005 (ip), vehicle: DMSO): 106 % of control; T/C (dose: 6.5 mg/kg/injection, schedule: Q01DX005 (ip), vehicle: DMSO): 113 % of control; T/C (dose: 13.0 mg/kg/injection, schedule: Q01DX005 (ip), vehicle: DMSO): 100 % of control

`c1ccc(-c2[nH]c3cc4c(cc3c2-c2ccccc2)Oc2ccccc2O4)cc1` was tested. Which T/C (dose: 17.5 mg/kg/injection, schedule: Q01DX009 (ip), vehicle: Klucel (hydroxypropylcellulose) (HPC)) did it give?
Its T/C is 116 % of control.

And the T/C (dose: 35.0 mg/kg/injection, schedule: Q01DX009 (ip), vehicle: Klucel (hydroxypropylcellulose) (HPC))?
The T/C was 113 % of control.

And the T/C (dose: 70.0 mg/kg/injection, schedule: Q01DX009 (ip), vehicle: Klucel (hydroxypropylcellulose) (HPC))?
The T/C was 104 % of control.

Which results are given for `Cc1ccc(-c2ccc(Nc3c4ccccc4nc4ccccc34)cc2)cn1`?
T/C (dose: 25.0 mg/kg/injection, schedule: Q01DX005 (ip), vehicle: distilled water + Tween-80): 106 % of control; T/C (dose: 50.0 mg/kg/injection, schedule: Q01DX005 (ip), vehicle: distilled water + Tween-80): 117 % of control; T/C (dose: 100.0 mg/kg/injection, schedule: Q01DX005 (ip), vehicle: distilled water + Tween-80): 151 % of control; T/C (dose: 200.0 mg/kg/injection, schedule: Q01DX005 (ip), vehicle: distilled water + Tween-80): 193 % of control

Which T/C [1] does the source give for `CN=C1c2ccccc2C(=O)c2c1c(O)n(-c1ccccc1)c2O` here?
The T/C was 96 % of control.

What about the T/C [5] of the same compound?
The T/C was 100 % of control.

What does the source list for `CCCC(NC(=O)OCc1ccccc1)C(=O)NC(CCSC)C(N)=O` (configuration not stated) (Cbz-[Nva]-Met-NH2; configuration not given here)?
T/C [1]: 106 % of control; T/C [5]: 97 % of control; T/C (dose: 200.0 mg/kg/injection, schedule: Q01DX005 (ip), vehicle: Klucel (hydroxypropylcellulose) (HPC)): 88 % of control

For `COC(OC)C1(C)NC(=O)NC1=O` (configuration not stated), which T/C (dose: 50.0 mg/kg/injection, schedule: Q01DX009 (ip), vehicle: Klucel (hydroxypropylcellulose) (HPC)) is on record?
Its T/C is 102 % of control.

And the T/C (dose: 100.0 mg/kg/injection, schedule: Q01DX009 (ip), vehicle: Klucel (hydroxypropylcellulose) (HPC))?
Its T/C is 103 % of control.

And the T/C (dose: 100.0 mg/kg/injection, schedule: Q04DX003 (ip), vehicle: Klucel (hydroxypropylcellulose) (HPC))?
Its T/C is 95 % of control.

And the T/C (dose: 200.0 mg/kg/injection, schedule: Q01DX009 (ip), vehicle: Klucel (hydroxypropylcellulose) (HPC))?
Its T/C is 93 % of control.

And the T/C (dose: 200.0 mg/kg/injection, schedule: Q04DX003 (ip), vehicle: Klucel (hydroxypropylcellulose) (HPC))?
Its T/C is 98 % of control.

And the T/C (dose: 400.0 mg/kg/injection, schedule: Q04DX003 (ip), vehicle: Klucel (hydroxypropylcellulose) (HPC))?
The T/C was 100 % of control.

With `C=C1C(C2(C)C(OC(C)=O)CC(=O)OC3(C)COC(=O)CC32)C(OC=O)C(OC(=O)CC(C)C)C2(C)C(c3ccoc3)CC(=O)C12O` (configuration not stated) as the compound, how does the T/C (dose: 0.25 mg/kg/injection, schedule: Q01DX009 (ip), vehicle: Klucel (hydroxypropylcellulose) (HPC)) read?
Its T/C is 88 % of control.

And the T/C (dose: 0.5 mg/kg/injection, schedule: Q01DX009 (ip), vehicle: Klucel (hydroxypropylcellulose) (HPC))?
Its T/C is 91 % of control.

And the T/C (dose: 1.0 mg/kg/injection, schedule: Q01DX009 (ip), vehicle: Klucel (hydroxypropylcellulose) (HPC))?
Its T/C is 88 % of control.

And the T/C (dose: 2.0 mg/kg/injection, schedule: Q01DX009 (ip), vehicle: Klucel (hydroxypropylcellulose) (HPC))?
The T/C was 97 % of control.

`CCCCOC(=O)c1ccc2nc(NC(=O)OC)[nH]c2c1` was tested. Which T/C (dose: 100.0 mg/kg/injection, schedule: Q04DX002 (ip), vehicle: saline with Tween-80) did it give?
The T/C was 100 % of control.

What about the T/C (dose: 200.0 mg/kg/injection, schedule: Q04DX002 (ip), vehicle: saline with Tween-80) of the same compound?
Its T/C is 90 % of control.

And the T/C (dose: 400.0 mg/kg/injection, schedule: Q04DX002 (ip), vehicle: saline with Tween-80)?
Its T/C is 91 % of control.

How did the T/C (dose: 7.5 mg/kg/injection, schedule: Q01DX005 (ip), vehicle: Klucel (hydroxypropylcellulose) (HPC)) turn out when `CCOC(=O)c1ccc(N=NC2Sc3nc4ccccc4n3C2=O)cc1` (configuration not stated) was run?
Its T/C is 97 % of control.

What about the T/C (dose: 15.0 mg/kg/injection, schedule: Q01DX005 (ip), vehicle: Klucel (hydroxypropylcellulose) (HPC)) of the same compound?
The T/C was 92 % of control.

And the T/C (dose: 30.0 mg/kg/injection, schedule: Q01DX005 (ip), vehicle: Klucel (hydroxypropylcellulose) (HPC))?
The T/C was 90 % of control.

`CCC1CC(C)C(O)/C=C/C=C/CC(C)OC(=O)CC(O)C(OC)C1OC1CC(C)(O)C(O)C(C)O1` (configuration not stated) was tested. Which T/C (dose: 10.5 mg/kg/injection, schedule: Q01DX005 (ip), vehicle: Klucel (hydroxypropylcellulose) (HPC)) did it give?
The T/C was 112 % of control.

And the T/C (dose: 21.0 mg/kg/injection, schedule: Q01DX005 (ip), vehicle: Klucel (hydroxypropylcellulose) (HPC))?
Its T/C is 102 % of control.

And the T/C (dose: 42.0 mg/kg/injection, schedule: Q01DX005 (ip), vehicle: Klucel (hydroxypropylcellulose) (HPC))?
Its T/C is 105 % of control.

And the T/C (dose: 84.0 mg/kg/injection, schedule: Q01DX005 (ip), vehicle: Klucel (hydroxypropylcellulose) (HPC))?
The T/C was 102 % of control.

How did the T/C (dose: 6.25 mg/kg/injection, schedule: Q01DX009 (ip), vehicle: Klucel (hydroxypropylcellulose) (HPC)) turn out when `COc1ccc(/C=C2\CCc3cc(OC)ccc3C2=O)cc1` was run?
The T/C was 117 % of control.

What about the T/C (dose: 12.5 mg/kg/injection, schedule: Q01DX009 (ip), vehicle: Klucel (hydroxypropylcellulose) (HPC)) of the same compound?
The T/C was 117 % of control.

And the T/C (dose: 25.0 mg/kg/injection, schedule: Q01DX009 (ip), vehicle: Klucel (hydroxypropylcellulose) (HPC))?
Its T/C is 115 % of control.

With `O=c1c(O)cccn1C1OC(CO)C(O)C1O` (configuration not stated) as the compound, how does the T/C (dose: 50.0 mg/kg/injection, schedule: Q01DX005 (ip), vehicle: saline) read?
The T/C was 99 % of control and 97 % of control and 104 % of control.

What about the T/C (dose: 100.0 mg/kg/injection, schedule: Q01DX005 (ip), vehicle: saline) of the same compound?
Its T/C is 99 % of control and 101 % of control and 117 % of control.

And the T/C (dose: 200.0 mg/kg/injection, schedule: Q01DX005 (ip), vehicle: saline)?
The T/C was 104 % of control [middle of 4 runs].

What about the T/C (dose: 400.0 mg/kg/injection, schedule: Q01DX005 (ip), vehicle: saline) of the same compound?
Its T/C is 102 % of control and 112 % of control and 87 % of control.

What does the source list for `Cc1cc[n+](C2=C(Nc3ccc(Cl)cc3C)C(=O)c3ccccc3C2=O)cc1`?
T/C (dose: 12.5 mg/kg/injection, schedule: Q01DX005 (ip), vehicle: saline with Tween-80): 109 % of control; T/C (dose: 25.0 mg/kg/injection, schedule: Q01DX005 (ip), vehicle: saline with Tween-80): 109 % of control; T/C [2]: 119 % of control; T/C (dose: 60.0 mg/kg/injection, schedule: Q01DX005 (ip), vehicle: saline with Tween-80): 121 % of control

For `CCCCC(CC)C[N+]1(C)CCOCC1` (configuration not stated), which T/C (dose: 12.5 mg/kg/injection, schedule: Q01DX009 (ip), vehicle: saline) is on record?
The T/C was 100 % of control.

And the T/C (dose: 25.0 mg/kg/injection, schedule: Q01DX009 (ip), vehicle: saline)?
The T/C was 100 % of control.

And the T/C (dose: 50.0 mg/kg/injection, schedule: Q01DX009 (ip), vehicle: saline)?
The T/C was 94 % of control.

Which T/C (dose: 15.0 mg/kg/injection, schedule: Q01DX005 (ip), vehicle: Klucel + Tween-80) does the source give for `CC(C)(C)/C=C/N=NNc1ccccc1C(=O)NC(C)(C)C` here?
The T/C was 95 % of control.

And the T/C (dose: 30.0 mg/kg/injection, schedule: Q01DX005 (ip), vehicle: Klucel + Tween-80)?
Its T/C is 101 % of control.

And the T/C (dose: 60.0 mg/kg/injection, schedule: Q01DX005 (ip), vehicle: Klucel + Tween-80)?
Its T/C is 87 % of control and 89 % of control.

How did the T/C [2] turn out when `COc1cc2c(cc1C(C)c1ccc(F)cc1)OCO2` (configuration not stated) was run?
Its T/C is 98 % of control.

What about the T/C [3] of the same compound?
Its T/C is 100 % of control.

And the T/C [4]?
Its T/C is 107 % of control.

For `CC(C)(Nc1ccccc1)c1cccs1`, which T/C (dose: 100.0 mg/kg/injection, schedule: Q01DX009 (ip), vehicle: saline with Tween-80) is on record?
Its T/C is 109 % of control.

What about the T/C (dose: 200.0 mg/kg/injection, schedule: Q01DX009 (ip), vehicle: saline with Tween-80) of the same compound?
The T/C was 109 % of control.

And the T/C (dose: 400.0 mg/kg/injection, schedule: Q01DX009 (ip), vehicle: saline with Tween-80)?
Its T/C is 95 % of control.

`Cn1c2ccccc2c(=O)c2cc(NC(=O)/C=C/C(=O)Nc3ccc4c(c3)c(=O)c3ccccc3n4C)ccc21` was tested. Which T/C [2] did it give?
The T/C was 102 % of control.

What about the T/C [3] of the same compound?
Its T/C is 105 % of control.

What about the T/C [4] of the same compound?
Its T/C is 106 % of control.
